Earlier results as cited in patent publication US20130197188A1 (priority 2010, published 2013).

Legend:
[1] = system: patients with chronic congestive heart failure; conditions: 15 ng/kg/min, 10-hour infusion; loss of action during infusion
[2] = system: patients with moderate asthma affliction; conditions: brief infusion; healthy and diseased subjects
[3] = system: patients with acute decompensated heart failure (ADHF)

Substance: urodilatin
- central venous pressure (CVP) [1]: increases slightly already after 5 hours of infusion
- urine flow [1]: loss of action after 8 hours of infusion
- effect on bronchoconstriction [2]: biologically relevant effectiveness
- changes of the baseline in pulmonary capillary wedge pressure (PCWP) ([3]; 15+30 ng/kg/min, compared with the placebo group, FIG. 4A): significant reductions
- changes of the cardiac index (CI) ([3]; 15 and 30 ng/kg/min, FIG. 4C): significant increase
- persistence of the effect on PCWP and CI (rebound) ([3]; during infusion, slight increase of PCWP and partial drop of CI): slightly reversed after 6 to 8 hours
- symptoms, morbidity and mortality ([3]; for all doses): significantly improved
- therapeutic window (dose) ([3]; intermediate dose applied): about 15 ng/kg/min
